Experimental data taken from patent US20250361233A1, “Compounds For Activating Serotonin Receptor” (PSYLO PTY LTD, priority 2023, published 2025).

Tests used:
C57BL/6J mice = assay: Biotelemetry and head-twitch response (HTR) experiments; format: in vivo, mice (C57BL/6J males); settings: male C57BL/6 mice, SC, several doses (0.03 to 30 mg/kg)
Source text: Mice (C57BL/6J males) were purchased from the Jackson Laboratory (Bar Harbor, ME, USA) at 5-6 weeks of age and allowed at least 1-2 weeks to acclimate to the NIDA, Intramural Research Program (IRP), animal research facility in Baltimore, MD, USA. The animal facility is fully accredited by the Association for the Assessment and Accreditation of Laboratory Animal Care, and all procedures were approved by the NIDA IRP Animal Care and Use Committee. Mice were initially group housed 3-5 per cage during acclimation and housed in a 12 h light-dark cycle throughout the study, with lights on at 0700 h. Food and water were available ad libitum except during testing. Cohorts of 20-24 mice were used for each test drug. The mice were subjected to experimental testing once every 1-2 weeks for 2-3 months to complete dose-effect curves and antagonist experiments. A minimum of 7 days between treatments was utilized to avoid any tolerance to effects of repeated drug administration. All drug doses represent the weight of the salt dissolved in 0.9% saline vehicle. Mice were tested first in dose-response studies to assess the effects of each compound at doses from 0.03 to 30 mg/kg s.c. and were subsequently tested in antagonist reversal studies utilizing pretreatment with M100907 and WAY100635. All experiments were conducted from 0900 to 1700 local time during the light phase, as sensitivity of rodents to other tryptamine psychedelics is diurnal, with maximal HTR observed in the middle of the light phase. […]
Subcutaneous Temperature Transponder Implants. […] Temperature was determined noninvasively using a handheld receiver that is sensitive to signals emitted from the implanted transponders.
Prior to each experiment, mouse body weight and temperature were recorded. […] In dose-response studies, after a brief 5 min acclimation, mouse body temperature was recorded for baseline measurement, mice received s.c. injection of test substance or vehicle, and animals were returned to the testing arena for 30 min. During the session, locomotor activity was monitored via photobeam tracking of movements in the horizontal plane to yield distance traveled in centimeter. HTR was monitored by the analysis of GoPro Hero Black 7 video recordings (120 frames per see and 960p resolution) using a commercially available software package from Clever Sys Inc. (Reston, VA, USA).82 Post-treatment body temperature values were also recorded, and temperature data are represented as change from pretreatment baseline.
In antagonist reversal experiments, mice received a s.c. injection of either receptor antagonists or vehicle and were returned to the testing chamber for 30 min. During this period, locomotor activity was monitored to examine the potential effects of antagonist treatment on general behavior or movement. […]

Male ICR mice = assay: Acute restraint stress - tail suspension test (TST); format: in vivo; settings: ICR mice after 5 h acute restraint stress, IP; P-3 3, 10 mg/kg; P-8 3, 10, 30 mg/kg; vs vehicle
Description: Male ICR mice (23±3 g) were purchased from BioLASCO (Taipei, Taiwan) at 4-5 weeks of age and allowed 5-7 days to acclimate to the animal research facility at Pharmacology Discovery Services (Taipei, Taiwan). Mice were housed in groups of 10 in a large cage (47×25×15 cm) on a 12-hour light cycle (lights on: 0700) and provided ad libitum food and water except during acute restraint stress and tail-suspension testing. Temperature was maintained at 20-24° C., and all rooms (colony and testing rooms) had similar lighting intensity. All aspects of this work including housing, experimentation, and animal disposal were performed in accordance with the “Guide for the Care and Use of Laboratory Animals: Eighth Edition” (The National Academies Press, Washington, DC, 2011) in a facility accredited by the Association for Assessment and Accreditation of Laboratory Animal Care. […]
Tail Suspension Test (TST) Procedure: Mice were individually suspended on the edge of a shelf, 58 cm above a tabletop, using adhesive tape placed approximately 1 cm from the tip of the tail, for a total duration of 7 minutes. Using a stopwatch, the experimenters blinded to treatment groups recorded the duration of immobility (defined as hanging passively and motionless) during the 5 minutes spanning from 2-7 minutes. The data from 0-2 minutes was not recorded. […]

Structure (SMILES) | Head-twitch response (HTR) (C57BL/6J mice) | Tolerability (temperature, locomotor activity, HTR; FIGS. 2-5) (C57BL/6J mice) | Immobility time in tail suspension test (FIG. 6) (Male ICR mice)
COc1cnc2[nH]cc(CCN(C)C)c2c1 [Compound P-3, 2-(5-methoxy-1H-pyrrolo[2,3-b]pyridin-3-yl)-N,N-dimethylethan-1-amine] | not promoting increased head-twitch response | well-tolerated | decrease the immobility time of mice
COc1ccnc2[nH]cc(CCN(C)C)c12 [Compound P-4, 2-(4-methoxy-1H-pyrrolo[2,3-b]pyridin-3-yl)-N,N-dimethylethan-1-amine] | not promoting increased head-twitch response | well-tolerated | –
